{
  "source": "paper PMC8472154",
  "about": "(Molecules, 2021)",
  "key": {"[1]": {"experiment": "DPPH free radical-scavenging activity", "settings": "mean ± SD, triplicate", "protocol": "The radical scavenging capacity was estimated according to Bounatirou et al. using 2,20-diphenylpicrylhydrazyl (DPPH) free radicals. The radical inhibition percentage was calculated with the equation: Inhibition = [(A0 − A1)/A0 × 100]; A0 stands for the absorbance of the control and A1 stands for the absorbance of the sample. […] Tests were carried out in triplicate."}, "[2]": {"experiment": "Hydrogen peroxide scavenging activity (colorimetric)", "set-up": "key: ---: no activity", "settings": "mean ± SD, triplicate", "protocol": "The scavenging hydrogen peroxide was evaluated by a colorimetric assay according to Gupta and Sharma. […] Tests were carried out in triplicate."}, "[3]": {"experiment": "Nitric oxide free radical scavenging activity (sodium nitroprusside)", "set-up": "key to Half Maximal Inhibitory Concentration IC50 NO.: ---: no activity", "settings": "mean ± SD, triplicate", "protocol": "The essential oil NO scavenging activity was estimated using the protocol described by El Guendouz et al. The inhibition percentage was calculated using the formula: Inhibition = [(A0 − (A1 − A2)/A0 × 100]. The A0 is the absorbance of sodium nitroprusside without sample, A1 and A2 were the absorbance of the sample with and without sodium nitroprusside."}, "[4]": {"experiment": "Superoxide anion radical scavenging (nonenzymatic PMS-NADH system)", "settings": "mean ± SD, triplicate", "protocol": "Superoxide anion free radical inhibition ability was evaluated using a nonenzymatic PMS-NADH (phenazine methosulfate–nicotinamide adenine dinucleotide) system as previously reported. The inhibition quantification was performed as aforementioned."}, "α-glucosidase": {"molecular_target": "α-glucosidase (Saccharomyces cerevisiae, UniProt P53341)", "sequence (P53341 whole entry)": "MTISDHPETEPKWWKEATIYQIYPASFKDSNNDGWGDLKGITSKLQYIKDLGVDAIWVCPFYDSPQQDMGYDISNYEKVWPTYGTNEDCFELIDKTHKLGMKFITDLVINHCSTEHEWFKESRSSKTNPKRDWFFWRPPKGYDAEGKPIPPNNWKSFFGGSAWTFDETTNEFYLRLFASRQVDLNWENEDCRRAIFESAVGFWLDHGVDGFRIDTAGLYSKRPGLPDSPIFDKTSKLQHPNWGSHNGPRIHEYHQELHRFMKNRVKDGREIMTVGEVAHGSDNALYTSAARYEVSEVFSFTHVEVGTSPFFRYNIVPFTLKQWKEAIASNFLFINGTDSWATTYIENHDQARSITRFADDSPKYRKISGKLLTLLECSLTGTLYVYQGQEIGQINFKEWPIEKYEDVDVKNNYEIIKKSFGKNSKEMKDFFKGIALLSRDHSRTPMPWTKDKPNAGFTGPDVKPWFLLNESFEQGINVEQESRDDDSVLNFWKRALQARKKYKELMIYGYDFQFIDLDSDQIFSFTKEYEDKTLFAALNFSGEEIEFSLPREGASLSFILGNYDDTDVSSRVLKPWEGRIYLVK", "experiment": "α-Glucosidase inhibition assay", "type": "biochemical", "settings": "mean ± SD, triplicate", "protocol": "The α-glucosidase inhibitor capacity of the essential oils was determined as described by El-Guendouz et al. The crease of absorbance was performed at 405 nm. The inhibition percentage of the enzyme was calculated as follows: I% = [(A0 −A1)/A0) × 100]; where A0 is the absorbance of the control and A1 is the absorbance of the sample. The trials were triplicated."}, "tyrosinase": {"tested_on": "tyrosinase", "sequence (P14679 19-529, species assumed)": "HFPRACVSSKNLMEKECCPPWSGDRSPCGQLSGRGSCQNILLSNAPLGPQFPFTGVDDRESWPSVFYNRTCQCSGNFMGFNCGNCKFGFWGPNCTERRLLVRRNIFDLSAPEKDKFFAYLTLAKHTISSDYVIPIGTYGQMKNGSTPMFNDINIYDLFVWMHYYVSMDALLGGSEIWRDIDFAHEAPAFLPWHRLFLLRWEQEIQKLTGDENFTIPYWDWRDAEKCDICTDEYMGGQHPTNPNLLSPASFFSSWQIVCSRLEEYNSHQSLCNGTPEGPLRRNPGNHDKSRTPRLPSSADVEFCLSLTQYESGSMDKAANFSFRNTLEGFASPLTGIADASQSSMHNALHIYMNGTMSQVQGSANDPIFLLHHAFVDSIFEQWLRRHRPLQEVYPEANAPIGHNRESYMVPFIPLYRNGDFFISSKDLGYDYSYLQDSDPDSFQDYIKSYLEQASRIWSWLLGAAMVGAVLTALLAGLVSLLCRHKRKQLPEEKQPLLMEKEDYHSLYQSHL", "experiment": "Tyrosinase inhibition assay (L-DOPA oxidation)", "type": "biochemical", "set-up": "inhibition: dose or concentration left out as unconfirmed", "settings": "Figure 4C; read-out: tyrosinase inhibition percentage, major terpenes", "protocol": "The tyrosinase inhibition was carried out by the tyrosinase-dependent L-3,4-dihydroxyphenylalanine (L-DOPA) oxidation assay as previously described. The following formula was used to determine the percentage of inhibition action: Inhibition = [(A0 − A1)/A0) × 100]; with A0 as the absorbance of the control and A1 as the absorbance of the sample."}, "MRSA strains": {"tested_on": "MRSA strains", "set-up": "method as in PMID 31461850", "settings": "cited from earlier work"}, "MRSA 15 biofilm": {"tested_on": "MRSA 15 biofilm", "experiment": "Biofilm formation inhibition (crystal violet)", "type": "cell-based, Staphylococcus aureus", "settings": "EO at 2.5, 5 and 10 μL/mL; chlorohexidine 0.2% v/v; 24 h; versus control culture; Figure 5", "protocol": "(§1) The Gram negative bacterium Escherichia coli DSM 1077, and the Gram positive Staphylococcus aureus ATCC 6538 and the methicillin-resistant S. aureus 15 (MRSA 15) were used in the present study. The bacterial strains were recovered from −80 °C in the culture medium Brain Heart Infusion (BHI, Oxoid, Basingstock, UK), when required agar (VWR, Radnor, Philadelphia, PA, USA) at 1.5% w/v.\n(§2) The inhibition of biofilm formation was done using the crystal violet assay. Briefly, 150 µL of an overnight culture prepared as previously mentioned was centrifuged for 10 min at 4 °C. For the preparation of the bacterial suspension, 150 µL of BHI medium supplemented with EOs at the 2.5 µL/mL, 5 µL/mL and 10 µL/mL, chlorhexidine 0.2% (v/v), n-propanol (20%), was added to the centrifuged bacterial culture. Each well containing 180 µL of BHI supplemented with EOs at the appropriate concentration was inoculated with 20 µL of the previous bacterial suspension. The cultures with no EO and in the presence of chlorohexidine (0.2 %, v/v), were used as control. The culture was left to adhere and form a biofilm for 24 h. After this incubation time, non-adherent cells were eliminated and the wells were washed twice with PBS; then, the microplate was left to dry for 15–30 min. […] The absorbance was measured at 595 nm after 15–20 min incubation."}, "[5]": {"tested_on": "S. aureus ATCC 6538 biofilm", "experiment": "Biofilm formation inhibition (crystal violet)", "type": "cell-based, Staphylococcus aureus", "settings": "EO at 2.5, 5 and 10 μL/mL; chlorohexidine 0.2% v/v; 24 h; versus control culture; Figure 5", "protocol": "as §1, §2"}, "E. coli DSM 1077 biofilm": {"tested_on": "E. coli DSM 1077 biofilm", "experiment": "Biofilm formation inhibition (crystal violet)", "type": "cell-based, Escherichia coli", "settings": "EO at 2.5, 5 and 10 μL/mL; chlorohexidine 0.2% v/v; 24 h; versus control culture; Figure 5", "protocol": "as §1, §2"}, "5-lipoxygenase": {"molecular_target": "5-lipoxygenase (Glycine max, UniProt P08170)", "sequence (P08170 whole entry)": "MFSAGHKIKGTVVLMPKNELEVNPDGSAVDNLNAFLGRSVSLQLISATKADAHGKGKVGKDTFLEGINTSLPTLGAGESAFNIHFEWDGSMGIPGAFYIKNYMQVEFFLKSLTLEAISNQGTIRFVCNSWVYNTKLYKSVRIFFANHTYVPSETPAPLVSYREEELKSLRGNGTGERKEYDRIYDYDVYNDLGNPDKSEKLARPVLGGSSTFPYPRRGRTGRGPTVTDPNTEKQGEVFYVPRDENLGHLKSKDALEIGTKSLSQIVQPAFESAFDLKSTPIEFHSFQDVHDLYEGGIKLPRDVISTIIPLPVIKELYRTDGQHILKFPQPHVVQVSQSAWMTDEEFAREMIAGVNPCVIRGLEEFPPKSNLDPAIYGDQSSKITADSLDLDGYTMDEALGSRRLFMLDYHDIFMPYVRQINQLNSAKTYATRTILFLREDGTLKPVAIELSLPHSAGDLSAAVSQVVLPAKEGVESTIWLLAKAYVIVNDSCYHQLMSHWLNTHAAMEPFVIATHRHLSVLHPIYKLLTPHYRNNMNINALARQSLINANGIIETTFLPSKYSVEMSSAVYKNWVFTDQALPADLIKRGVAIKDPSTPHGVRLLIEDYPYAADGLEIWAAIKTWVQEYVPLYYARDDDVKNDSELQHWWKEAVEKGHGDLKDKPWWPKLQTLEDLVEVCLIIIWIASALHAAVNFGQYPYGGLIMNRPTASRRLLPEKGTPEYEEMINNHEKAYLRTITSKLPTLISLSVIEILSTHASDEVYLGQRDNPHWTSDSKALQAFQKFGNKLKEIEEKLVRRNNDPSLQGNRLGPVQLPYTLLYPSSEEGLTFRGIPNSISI", "experiment": "Lipoxygenase inhibition assay (linoleic acid substrate)", "type": "biochemical", "protocol": "The 5-lipoxygenase assay was carried out according to the method described by El Guendouz et al. The following formula was used to determine the percentage of inhibition action: Inhibition = [(A0 − A1)/A0) × 100]; where A0 is the absorbance of the control and A1 is the absorbance of the sample."}, "S. aureus ATCC 6538": {"tested_on": "S. aureus ATCC 6538", "experiment": "Agar disc diffusion", "type": "cell-based, Staphylococcus aureus", "settings": "5 µL per 6 mm disc, 24 h, diameter including disc, chloramphenicol 30 μg/mL", "protocol": "as §1\n(§3) The bacterial susceptibility to the combinations Ro:La:Ca at ratio 1:1:1, Ro:La:Ca at ratio 2/3:1/6:16, Ro:La:Ca at ratio 1/6:2/3:16, Ro:La:Ca at ratio 1/6:1/6:2/3, and the components linalool, 1,8 cineole, and camphor, were performed by the agar disc diffusion technique as previously described. Briefly, 100 µL of the bacterial suspension at an OD600nm 0.3–0.4 was inoculated in BHI agar, and sterile discs (∅ 6 mm) were distributed over the surface. A volume of 5 µL of each EO and the individual components 1,8-cineole (52.62 mg/mL), and linalool (16.13 mg/mL), were deposited in the center of each disc. The plates were incubated for 24 h. The diameter of the inhibition zone including the disc was measured. The assay was performed in triplicate (n = 6)."}, "[6]": {"tested_on": "methicillin-resistant S. aureus 15 (MRSA 15)", "experiment": "Agar disc diffusion", "type": "cell-based, Staphylococcus aureus", "settings": "5 µL per 6 mm disc, 24 h, diameter including disc, chloramphenicol 30 μg/mL", "protocol": "as §1, §3"}, "E. coli DSM 1077": {"tested_on": "E. coli DSM 1077", "experiment": "Agar disc diffusion", "type": "cell-based, Escherichia coli", "settings": "5 µL per 6 mm disc, 24 h, diameter including disc, chloramphenicol 30 μg/mL", "protocol": "as §1, §3"}, "S. aureus": {"tested_on": "S. aureus", "set-up": "method as in PMID 12485339", "settings": "previous study; cited from earlier work"}, "E. coli": {"tested_on": "E. coli", "set-up": "method as in PMID 12485339", "settings": "previous study; cited from earlier work"}},
  "note": "Marks after values point to notes of the source that are not given here.",
  "data": [
    {"smiles": "C=CC(C)(CCC=C(C)C)OC(C)=O", "note": "(centres unmarked) [Linalyl acetate]", "values": [
      {"measurement": "Half Maximal Inhibitory Concentration IC50 DPPH", "setting": "[1]", "result": "148.61 ± 1.28 ^a mg/mL"},
      {"measurement": "Half Maximal Inhibitory Concentration IC50 H2O2", "setting": "[2]", "result": "---"},
      {"measurement": "Half Maximal Inhibitory Concentration IC50 NO.", "setting": "[3]", "result": "---"},
      {"measurement": "Half Maximal Inhibitory Concentration IC50 NO.", "setting": "[3]; listed as linalyl acetate", "result": "had no ability"},
      {"measurement": "Half Maximal Inhibitory Concentration IC50 Superoxide", "setting": "[4]", "result": "18.23 ± 0.01 ^b mg/mL"},
      {"measurement": "Half Maximal Inhibitory Concentration IC50 α-Glucosidase", "setting": "α-glucosidase; listed as linalyl acetate", "result": "did not have activity"},
      {"measurement": "inhibition", "setting": "tyrosinase", "result": "> 20", "unit": "%"},
      {"measurement": "MIC against MRSA strains", "setting": "MRSA strains", "result": "450.50 ± 0.00", "unit": "μL/mL"}
    ]},
    {"smiles": "[H]/N=C(\\N/C(=N/[H])NCCCCCCNC(=N)NC(=N)Nc1ccc(Cl)cc1)Nc1ccc(Cl)cc1", "note": "[chlorohexidine]", "values": [
      {"measurement": "biofilm formation of MRSA 15", "setting": "MRSA 15 biofilm", "result": "reduced biofilm formation"},
      {"measurement": "biofilm formation of S. aureus ATCC 6538", "setting": "[5]", "result": "induced the biofilm formation"},
      {"measurement": "biofilm formation of E. coli DSM 1077", "setting": "E. coli DSM 1077 biofilm", "result": "reduced biofilm formation"}
    ]},
    {"smiles": "C=CC(C)(O)CCC=C(C)C", "note": "(centres unmarked) [Linalool]", "values": [
      {"measurement": "Half Maximal Inhibitory Concentration IC50 DPPH", "setting": "[1]", "result": "102.34 ± 3.13 ^b mg/mL"},
      {"measurement": "Half Maximal Inhibitory Concentration IC50 NO.", "setting": "[3]", "result": "---"},
      {"measurement": "Half Maximal Inhibitory Concentration IC50 NO.", "setting": "[3]; listed as linalool", "result": "had no ability"},
      {"measurement": "Half Maximal Inhibitory Concentration IC50 Superoxide", "setting": "[4]", "result": "20.41 ± 1.47 ^b mg/mL"},
      {"measurement": "Half Maximal Inhibitory Concentration IC50 α-Glucosidase", "setting": "α-glucosidase; listed as linalool", "result": "did not have activity"},
      {"measurement": "lipoxygenase inhibition / anti-inflammatory activity", "setting": "5-lipoxygenase", "result": "weak anti-inflammatory activity"},
      {"measurement": "inhibition", "setting": "tyrosinase", "result": "> 20", "unit": "%"},
      {"measurement": "Inhibition Zone S. aureus ATCC 6538", "setting": "S. aureus ATCC 6538", "result": "12.83 ± 0.47 ^b,c mm"},
      {"measurement": "Inhibition Zone S. aureus ATCC 6538", "setting": "S. aureus ATCC 6538; listed as linalool", "result": "12.83 ± 0.47", "unit": "mm"},
      {"measurement": "Inhibition Zone Methicillin Resistant S. aureus 15", "setting": "[6]", "result": "13.83 ± 1.24 ^b mm"},
      {"measurement": "Inhibition Zone Methicillin Resistant S. aureus 15", "setting": "[6]; listed as linalool", "result": "13.83 ± 1.24", "unit": "mm"},
      {"measurement": "Inhibition Zone E. coli DSM 1077", "setting": "E. coli DSM 1077", "result": "15.67 ± 0.23 ^a mm"},
      {"measurement": "Inhibition Zone E. coli DSM 1077", "setting": "E. coli DSM 1077; listed as linalool", "result": "15.67 ± 0.23", "unit": "mm"},
      {"measurement": "inhibition zone against S. aureus", "setting": "S. aureus", "result": "13.0 ± 4.2", "unit": "mm"},
      {"measurement": "inhibition zone against E. coli", "setting": "E. coli", "result": "10.3 ± 0.5", "unit": "mm"}
    ]}
  ]
}
